Results taken from paper PMC9570267, “A Computational QSAR, Molecular Docking and In Vitro Cytotoxicity Study of Novel Thiouracil-Based Drugs with Anticancer Activity against Human-DNA Topoisomerase II” (International Journal of Molecular Sciences, 2022).

Target: T1, topoisomerase I (Homo sapiens, UniProt P11387)
T1 construct: gene TOP1
T1 sequence (P11387 2-765): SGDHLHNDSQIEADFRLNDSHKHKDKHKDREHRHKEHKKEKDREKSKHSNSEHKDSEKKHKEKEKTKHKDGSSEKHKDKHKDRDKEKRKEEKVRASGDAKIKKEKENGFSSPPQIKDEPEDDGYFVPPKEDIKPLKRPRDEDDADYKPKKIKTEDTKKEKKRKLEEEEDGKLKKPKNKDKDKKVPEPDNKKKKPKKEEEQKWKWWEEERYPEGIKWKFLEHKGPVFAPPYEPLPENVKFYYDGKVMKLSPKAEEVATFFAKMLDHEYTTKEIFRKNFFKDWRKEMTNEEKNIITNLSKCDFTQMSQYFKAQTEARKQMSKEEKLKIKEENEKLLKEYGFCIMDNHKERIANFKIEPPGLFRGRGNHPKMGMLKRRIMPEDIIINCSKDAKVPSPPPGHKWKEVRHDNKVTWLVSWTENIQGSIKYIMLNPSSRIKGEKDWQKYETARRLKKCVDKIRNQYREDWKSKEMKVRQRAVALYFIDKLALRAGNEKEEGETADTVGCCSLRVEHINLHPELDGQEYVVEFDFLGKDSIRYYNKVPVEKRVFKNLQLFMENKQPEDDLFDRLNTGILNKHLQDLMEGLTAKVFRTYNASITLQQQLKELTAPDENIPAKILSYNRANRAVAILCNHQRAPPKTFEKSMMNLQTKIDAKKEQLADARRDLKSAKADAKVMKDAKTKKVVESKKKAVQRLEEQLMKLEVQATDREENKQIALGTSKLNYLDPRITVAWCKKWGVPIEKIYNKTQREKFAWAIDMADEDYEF
Experiment: supercoiled plasmid DNA relaxation gel assay (TopoGEN topo I kit)
Format: biochemical

| IC50 [µM] | SMILES |
| --- | --- |
| 30.9 ± 1.49 | COc1ccc(C2C3=C(Nc4[nH]c(=S)[nH]c(=O)c42)c2ccccc2C3=O)cc1 (centres unmarked) [7H] |
| 38.8 ± 2.27 | CN(C)c1ccc(C2C3=C(Nc4[nH]c(=S)[nH]c(=O)c42)c2ccccc2C3=O)cc1 (centres unmarked) [9H] |
